Data on 2 compounds can be found in paper PMC2870997 (Bioorganic & medicinal chemistry letters, 2009).

The assay has as its system PKA reporter Reg-F[1]:Cat-F[2]. The experiment in a line: Protein-fragment complementation. As to conditions: β2AR-HEK293 cells. It counts as cell-based.

With `CC(C)NCC(O)c1ccc(O)c(O)c1` (centres unmarked) [Analogue 19, isoproterenol], the “Effect on luminescence by β2AR activation (control)” value (1 μM, 30 min) is given as “able to reduce luminescence”.

`Cc1ccc(OCC(O)C(C)NC(C)C)c2c1CCC2` (centres unmarked) [Analogue 20, IC118551]: for the setting “1 μM pretreatment”, the “Effect of pretreatment on the response to 19 (control)” value was “capable of preventing the effects of 19”.
